In ChEMBL document CHEMBL1201862, “PubChem BioAssay data set” (2004):
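Assay format: 96-well plates, 48-hour exposure. Here, GI50 denotes the concentration required for 50% inhibition of growth.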 The source made the active and inactive calls. Rule as the data show it: active = GI50 up to about 1.1 µM and inactive = higher.

Columns and labels:
Assay in all cases: NCI tumour cell line growth inhibition, 48 h
SR = test system: SR
SNB-78 = test system: SNB-78
HT-29 = test system: HT-29
DMS-114 = test system: DMS-114
U-251 = test system: U-251
SF-539 = test system: SF-539
HOP-18 = test system: HOP-18
SK-OV-3 = test system: SK-OV-3
M14 = test system: M14
EKVX = test system: EKVX
OVCAR-4 = test system: OVCAR-4
SK-MEL-2 = test system: SK-MEL-2
786-0 = test system: 786-0
HCT-116 = test system: HCT-116
M19-MEL = test system: M19-MEL
NCI-H23 = test system: NCI-H23
SK-MEL-28 = test system: SK-MEL-28
HL-60 = test system: HL-60
RXF 393 = test system: RXF 393
NCI-H522 = test system: NCI-H522
CAKI-1 = test system: CAKI-1
XF498 = test system: XF498
OVCAR-3 = test system: OVCAR-3
LOX IMVI = test system: LOX IMVI
Malme-3M = test system: Malme-3M
HOP-92 = test system: HOP-92
A549 = test system: A549
SNB-19 = test system: SNB-19
HCC 2998 = test system: HCC 2998
UO-31 = test system: UO-31
SNB-75 = test system: SNB-75
SW-620 = test system: SW-620
OVCAR-8 = test system: OVCAR-8
UACC-257 = test system: UACC-257
RPMI-8226 = test system: RPMI-8226
SK-MEL-5 = test system: SK-MEL-5
DLD-1 = test system: DLD-1
SN12C = test system: SN12C
CCRF-CEM = test system: CCRF-CEM
ACHN = test system: ACHN
DMS-273 = test system: DMS-273
SF-295 = test system: SF-295
RXF 631 = test system: RXF 631
UACC-62 = test system: UACC-62
OVCAR-5 = test system: OVCAR-5
NCI-H460 = test system: NCI-H460
IGROV-1 = test system: IGROV-1
KM12 = test system: KM12
KM-20L2 = test system: KM-20L2
NCI-H226 = test system: NCI-H226
TK-10 = test system: TK-10
LXFL 529 = test system: LXFL 529
HOP-62 = test system: HOP-62
HCT-15 = test system: HCT-15
K562 = test system: K562
MOLT-4 = test system: MOLT-4
COLO 205 = test system: COLO 205

CCCCCCCCCCCCCCCCP(=O)(OC)OC
GI50 (SR): 19.1 µM (inactive) | GI50 (SNB-78): 17.7 µM (inactive) | GI50 (HT-29): 17.5 µM (inactive) | GI50 (DMS-114): 16.1 µM (inactive) | GI50 (U-251): 17.9 µM (inactive) | GI50 (SF-539): 20.6 µM (inactive) | GI50 (HOP-18): 15 µM (inactive) | GI50 (SK-OV-3): 15.2 µM (inactive) | GI50 (M14): 16.3 µM (inactive) | GI50 (EKVX): 15 µM (inactive) | GI50 (OVCAR-4): 20.7 µM (inactive) | GI50 (SK-MEL-2): 16.4 µM (inactive) | GI50 (786-0): 17.6 µM (inactive) | GI50 (HCT-116): 18.9 µM (inactive) | GI50 (M19-MEL): 16.4 µM (inactive) | GI50 (NCI-H23): 16.5 µM (inactive) | GI50 (SK-MEL-28): 17.7 µM (inactive) | GI50 (HL-60): 11.6 µM (inactive) | GI50 (RXF 393): 19 µM (inactive) | GI50 (NCI-H522): 13.5 µM (inactive) | GI50 (CAKI-1): 16.6 µM (inactive) | GI50 (XF498): 13.1 µM (inactive) | GI50 (OVCAR-3): 17.8 µM (inactive) | GI50 (LOX IMVI): 16.9 µM (inactive) | GI50 (Malme-3M): 18.2 µM (inactive) | GI50 (HOP-92): 16.4 µM (inactive) | GI50 (A549): 17.7 µM (inactive) | GI50 (SNB-19): 15.2 µM (inactive) | GI50 (HCC 2998): 15.4 µM (inactive) | GI50 (UO-31): 11.7 µM (inactive) | GI50 (SNB-75): 16.6 µM (inactive) | GI50 (SW-620): 14.7 µM (inactive) | GI50 (OVCAR-8): 15.8 µM (inactive) | GI50 (UACC-257): 17.5 µM (inactive) | GI50 (RPMI-8226): 13.2 µM (inactive) | GI50 (SK-MEL-5): 16.4 µM (inactive) | GI50 (DLD-1): 17.5 µM (inactive) | GI50 (SN12C): 17.2 µM (inactive) | GI50 (CCRF-CEM): 22.3 µM (inactive) | GI50 (ACHN): 14.8 µM (inactive) | GI50 (DMS-273): 14.5 µM (inactive) | GI50 (SF-295): 18 µM (inactive) | GI50 (RXF 631): 16.9 µM (inactive) | GI50 (UACC-62): 14.6 µM (inactive) | GI50 (OVCAR-5): 13.9 µM (inactive) | GI50 (NCI-H460): 17.3 µM (inactive) | GI50 (IGROV-1): 16.7 µM (inactive) | GI50 (KM12): 17.9 µM (inactive) | GI50 (KM-20L2): 22.4 µM (inactive) | GI50 (NCI-H226): 17.1 µM (inactive) | GI50 (TK-10): 17.1 µM (inactive) | GI50 (LXFL 529): 15.8 µM (inactive) | GI50 (HOP-62): 12 µM (inactive) | GI50 (HCT-15): 16.6 µM | GI50 (K562): 22.5 µM (inactive) | GI50 (MOLT-4): 16.5 µM (inactive) | GI50 (COLO 205): 17 µM (inactive)
